According to patent USH1168H, “Inhibitors of protein kinase C activity as protectors against septic shock and reducers of ARDS” (priority 1991, dated 1993):
“Also recorded” adds a separate entry of the source.

What was measured:
platelets = settings: pretreatment; stimulation with thrombin, OAG, linoleic or linolelaidic acid (25); cited from earlier work
endothelial cells [1] = settings: literature (1, 2); cited from earlier work
rat aortic rings [2] = assay: KCl-induced contraction of rat aortic rings after 16 h incubation with phorbol dibutyrate; format: cell-based; settings: for EC50: Rattus norvegicus, 16 h
Procedure: (§1) (Panel B) Contraction to KCl by rings incubated and denoted with the same symbols as detailed above. Four rings were prepared from each rat and one ring allocated into each medium formulation to evaluate responses to NE. Rings were similarly prepared to determine responses to KCl. Data presented as in FIG. 1. N=6 rats apiece for assessment of responses to NE and KCl.
(§2) (Panel B) Contraction to KCl by rings incubated and denoted with the same symbols as detailed above. Four rings were prepared from each rat and one ring allocated into each medium formulation. Data is presented as in FIG. 1. N=8 rats for assessment of responses to both NE and KCl.
(§3) Tissue preparation and incubation. Male Sprague-Dawley rats (250-350 g, Taconic Farms, Germantown, N.Y.) were used. Rat thoracic aortic rings were prepared and incubated as detailed by McKenna (14). In brief, 4 or 6 rings were prepared from each rat. Care was taken during dissection to maintain the patency of the endothelium. Some aortas were de-endothelialized before sectioning into rings by perfusion with phosphate buffered saline (PBS) containing 1% deoxycholate for 30 sec followed by a PBS and bubble rinse for 5 min. Rings were incubated in DME (Dulbecco's Modified Eagle's medium) supplemented with 1% fetal calf serum, 100 μg/ml streptomycin, and 100 U/ml penicillin. During incubation, the rings were exposed to combinations of LPS (10 or 35 ng/ml), H7 (25 μM), HA1004 (N-(2-guanidinoethyl)-5-isoquinolinesulfonamide) (25 μM), sphingosine (20 μM), or their vehicles. […] Rings used in measures of contractile performance were placed individually in Petri dishes containing 1.2 ml DME and were distributed so that tissue isolated from each aorta was allocated to every combination of treatments within an experiment. […] All tissue isolated from an aorta (six rings) was allocated to a single treatment. The media and rings were rotated gently for 16-18 hr in an incubator at 37° C. under a 95% O2 -5% CO2 atmosphere.
(§4) Measurement of aortic ring contraction. After incubation, rings were mounted in tissue baths, equilibrated, and pre-contracted as previously detailed (14). These procedures required approximately 90 min. Rings were maintained in Krebs Ringer Bicarbonate buffer (KRB, 14). Contractions by six or eight rings were measured simultaneously and recorded on multichannel strip chart recorders. […] Other rings were contracted by withdrawing KRB from the tissue baths and adding increasing volumes of a high KCl KRB (120 mM, made by equimolar substitution of KCl for NaCl) to the baths to yield final KCl concentrations of 10 to 80 mM. All rings were blotted and weighed after experiments were completed.
(§5) Statistics. […] Tests for differences between EC50 values were based on log EC50 values (17). EC50 values were then converted to […] means to allow expression as nanomolar concentrations. Examination of differences among four or six treatment means was by randomized blocks analysis of variance; if significant differences were present, then pairs of means were tested by Student-Newman-Keuls a posteriori tests (18). Paired t-tests were used to assess differences between two treatment means. […] Differences with probabilities of 0.05 or less were accepted as significant. All data are expressed as means±SEM.

rat aortic rings [3] = assay: Direct contraction of rat aortic rings by phorbol dibutyrate; format: cell-based; set-up: Emax: dose or concentration left out as unconfirmed; settings: for EC50: read-out: EC50 for contraction by PDB
Procedure: Four rings were prepared from each rat and one ring allocated into each medium formulation. Data is presented as in FIG. 1.
as §3, §4, §5

rat aortic rings [4] = assay: NE-induced contraction of rat aortic rings after 16 h incubation with phorbol dibutyrate; format: cell-based; set-up: contractions to NE; vascular suppression: dose or concentration left out as unconfirmed; settings: for EC50: Rattus norvegicus, 16 h
Procedure: as §1, §2, §3, §4, §5

[5] = system: Rabbit aortic smooth muscle cells; settings: literature (29); cited from earlier work
[6] = system: Rabbit aortic smooth muscle cells; settings: literature; cited from earlier work
[7] = system: intact endothelium rat aortic rings; assay: NE-induced contraction of intact rat aortic rings after 16 h incubation with LPS and/or PKC inhibitors; format: cell-based; settings: for EC50: Rattus norvegicus, 16 h, intact endothelium, read-out: EC50 value for NE stimulated contraction (EC50 of the agonist NE)
Procedure: FIG. 1 is a graph showing contraction to cumulative doses of NE by rat aortic rings incubated for 16 hr in combinations of control, LPS (endotoxin or lipopolysaccharide), H7, and N-(2-guanidinoethyl)-5-isoquinolinesulfonamide (HA1004; a negative control for H7) treated media. (Panel A) Responses by rings incubated in medium only (open circles), medium plus H7 (25 μM, closed circles), medium containing LPS (10 ng/ml, open triangles), and medium containing LPS plus H7 (closed triangles). (Panel B) For clarity in presentation, responses by rings incubated in medium only (open circles) and LPS treated medium (open triangles) are reproduced from Panel A. Additional rings were incubated in medium plus HA1004 (25 μM, closed circles), and medium containing LPS plus HA1004 (closed triangles). Six rings were prepared from each rat and one ring allocated into each medium formulation. […] The curves are the best fit of the data by nonlinear least squares to a polynomial model. N=8 rats.
as §3, §4, §5

[8] = system: deendothelialized rat aortas; settings: literature (26); cited from earlier work
[9] = system: intact endothelium rat aortic rings; assay: KCl-induced contraction of intact rat aortic rings after 16 h incubation with LPS and/or PKC inhibitors; format: cell-based; settings: for EC50: Rattus norvegicus, 16 h, intact endothelium, read-out: EC50 value for KCl stimulated contraction (EC50 of the agonist KCl)
Procedure: FIG. 2 is a graph showing contraction to cumulative doses of KCl by rat aortic rings incubated for 16 hr in combinations of control, LPS, H7, and HA1004 treated media. (Panel A) Response by rings incubated in medium only (open circles), medium plus H7 (25 μM, closed circles), medium containing LPS (10 ng/ml, open triangles), and medium containing LPS plus H7 (closed triangles). (Panel B) For clarity in presentation, responses by rings incubated in medium only (open circles) and LPS treated medium (open triangles) are reproduced from Panel A. Additional rings were incubated in medium plus HA1004 (25 μM, closed circles), and medium containing LPS plus HA1004 (closed triangles). Rings were prepared and data is presented as described in FIG. 1. N=6 rats.
as §3, §4, §5

endothelial cells [10] = settings: literature (3); cited from earlier work
human neutrophils = settings: PMA alone (31); cited from earlier work
PKC = settings: literature (33,34); cited from earlier work
[11] = LPS 10 ng/ml plus inhibitor 25 μM
[12] = LPS-treated media (10 ng/ml), alone or plus inhibitor 25 μM
[13] = control media (no LPS) plus inhibitor 25 μM
[14] = inhibitor 25 μM by itself, no LPS

polymyxin B
platelet aggregation after stimulation (platelets): blocked

CN[C@@H]1C[C@H]2O[C@@](C)([C@@H]1OC)n1c3ccccc3c3c4c(c5c6ccccc6n2c5c31)C(=O)NC4 [staurosporine]
platelet aggregation after stimulation (platelets): blocked
adhesive proteins on endothelial cell surfaces (endothelial cells [1]): reduced

CCCC(=O)O[C@@H]1[C@@H](C)[C@@]2(O)[C@@H](C=C(CO)C[C@]3(O)C(=O)C(C)=C[C@@H]23)[C@@H]2C(C)(C)[C@]12OC(=O)CCC [PDB, 4β-phorbol-12,13-dibutyrate]
EC50 (rat aortic rings [2]; read-out: EC50 value for KCl contraction (EC50 of the agonist KCl), rings incubated with 4β-PDB 0.1 μM, 16 h): 22000 µM
EC50 (rat aortic rings [2]; read-out: EC50 value for KCl contraction (EC50 of the agonist KCl), rings incubated with 4β-PDB 1.0 μM, 16 h): 27000 µM
EC50 (rat aortic rings [2]; read-out: EC50 value for KCl contraction (EC50 of the agonist KCl), rings incubated with 4β-PDB 10.0 μM, 16 h): 36000 µM
EC50 (rat aortic rings [3]; Rattus norvegicus, 16 h): 0.041 ± 0.003 µM
EC50 (rat aortic rings [3]; Rattus norvegicus): 0.032 ± 0.004 µM
Emax (rat aortic rings [3]; Rattus norvegicus, read-out: maximum contraction caused by PDB): > 90%
EC50 (rat aortic rings [4]; read-out: EC50 value for NE contraction (EC50 of the agonist NE), rings incubated with 4β-PDB 0.1 μM, 16 h): 0.056 µM
EC50 (rat aortic rings [4]; read-out: EC50 value for NE contraction (EC50 of the agonist NE), rings incubated with 4β-PDB 1.0 μM, 16 h): 0.184 µM
EC50 (rat aortic rings [4]; read-out: EC50 value for NE contraction (EC50 of the agonist NE), rings incubated with 4β-PDB 10.0 μM, 16 h): 0.283 µM

CCCCCCCCCCCCCC(=O)O[C@@H]1[C@@H](C)[C@@]2(O)[C@@H](C=C(CO)C[C@]3(O)C(=O)C(C)=C[C@@H]23)[C@@H]2C(C)(C)[C@]12OC(C)=O [TPA]
whole blood serum induced intracellular Ca^2+ mobilization [5]: inhibits whole blood serum induced intracellular Ca^2+ mobilization
cell proliferation [6]: modulates cell proliferation

CC1CNCCN1S(=O)(=O)c1cccc2cnccc12 (stereo not shown) [H7, 1-(5-isoquinolinylsulfonyl)-2-methyl piperazine]
EC50 and Emax (sensitivity and maximum contraction) to NE versus control tissue [7, 11]: not significantly different from control tissue
EC50 [7, 12]: 0.099 µM
EC50 [7, 13]: 0.051 ± 0.015 µM
blocking of LPS effects on contraction to NE ([7]; co-incubation, inhibitor 25 μM, LPS 10 ng/ml): blocked
contractile function / sensitivity to NE [7, 14]: little change in contractile function
abrogation of LPS effects on contractile function ([7]; intact rings, H7 25 μM): clearly abrogated the majority of the deleterious effects of LPS on rat aortic tissue contractile function
blocking of PDB induced contraction [8]: ineffective blocker of PDB induced contraction
inhibition of KCl elicited contraction [8]: significantly inhibits KCl elicited contraction
EC50 and Emax values to KCl versus control tissue [9, 11]: did not vary significantly from control tissue
protection against LPS-induced contractile dysfunction (KCl) [9, 11]: shielded the tissue from LPS-induced contractile dysfunction
EC50 [9, 12]: 32000 µM
EC50 [9, 13]: 28000 ± 1000 µM
maximum contraction to KCl [9, 14]: significant increases in maximum contraction
sensitivity to KCl [9, 14]: no enhancement in sensitivity to KCl
platelet aggregation after stimulation (platelets): blocked
endothelial cell permeability response to inflammatory agents (endothelial cells [10]): abrogated
adhesive proteins on endothelial cell surfaces (endothelial cells [1]): reduced

CCCC(=O)O[C@@H]1[C@@H](C)[C@@]2(O)[C@@H](C=C(CO)C[C@@]3(O)C(=O)C(C)=C[C@@H]23)[C@@H]2C(C)(C)[C@]12OC(=O)CCC [4α-PDB, 4-α-phorbol-12,13-dibutyrate]
alterations in EC50 values for KCl (rat aortic rings [2]; 10 μM 4α-PDB): no significant alterations in EC50 values for the agonists
contractions to KCl (rat aortic rings [2]; 10 μM 4α-PDB): significantly impaired contractions to NE and KCl
EC50 (rat aortic rings [2]; read-out: EC50 value for KCl contraction (EC50 of the agonist KCl), rings incubated with 4α-PDB 10.0 μM, 16 h): 28000 µM
contraction of aortic rings by 4α-PDB itself (rat aortic rings [3]; concentrations up to 10 μM (data not shown)): could not contract aortic rings at concentrations up to 10 μM
contractions to NE; vascular suppression (rat aortic rings [4]): significantly impaired contractions to NE and KCl; also recorded: equally effective at causing vascular suppression
alterations in EC50 values for NE (rat aortic rings [4]; 10 μM 4α-PDB): no significant alterations in EC50 values for the agonists
EC50 (rat aortic rings [4]; read-out: EC50 value for NE contraction (EC50 of the agonist NE), rings incubated with 4α-PDB 10.0 μM, 16 h): 0.286 µM

CCCCCCCCCCCCCC(=O)O[C@@H]1[C@@H](C)[C@@]2(O)[C@@H](C=C(CO)C[C@]3(O)C(=O)C(C)=C[C@@H]23)[C@@H]2C(C)(C)[C@]12OC(C)=O [PMA]
synthesis of PAF or LTB4 (human neutrophils): could not cause synthesis of either PAF or LTB4

lipid A
activation of PKC in vitro (PKC): can directly activate PKC in vitro
